Reference: patent US20230072683A1, “PYRIDO-PYRIMIDIN DERIVATIVES AND PHARMACEUTICAL COMPOSITION, FOR USE IN PREVENTING OR TREATING PI3 KINASE RELATED DISEASES, COMPRISING SAME AS ACTIVE INGREDIENT” (BORYUNG PHARMACEUTICAL CO., LTD, priority 2019, published 2023)

Legend:
[1] = target: PI3K-δ (PI3K(p1108/p857) (h)) (Homo sapiens, UniProt O00329); test: Evaluation of inhibitory activity against PI3K-δ (HTRF kinase assay); format: biochemical; settings: for inhibition at 0.01 µM: compound concentration 0.01 μM, read-out: EXP_VALUE(% Inhibition) PI3K-δ 0.01 μM; for inhibition at 0.1 µM: compound concentration 0.1 μM, read-out: EXP_VALUE(% Inhibition) PI3K-δ 0.1 μM
Chain of PI3K-δ (PI3K(p1108/p857) (h)) (O00329 whole entry, the tested form may be a part): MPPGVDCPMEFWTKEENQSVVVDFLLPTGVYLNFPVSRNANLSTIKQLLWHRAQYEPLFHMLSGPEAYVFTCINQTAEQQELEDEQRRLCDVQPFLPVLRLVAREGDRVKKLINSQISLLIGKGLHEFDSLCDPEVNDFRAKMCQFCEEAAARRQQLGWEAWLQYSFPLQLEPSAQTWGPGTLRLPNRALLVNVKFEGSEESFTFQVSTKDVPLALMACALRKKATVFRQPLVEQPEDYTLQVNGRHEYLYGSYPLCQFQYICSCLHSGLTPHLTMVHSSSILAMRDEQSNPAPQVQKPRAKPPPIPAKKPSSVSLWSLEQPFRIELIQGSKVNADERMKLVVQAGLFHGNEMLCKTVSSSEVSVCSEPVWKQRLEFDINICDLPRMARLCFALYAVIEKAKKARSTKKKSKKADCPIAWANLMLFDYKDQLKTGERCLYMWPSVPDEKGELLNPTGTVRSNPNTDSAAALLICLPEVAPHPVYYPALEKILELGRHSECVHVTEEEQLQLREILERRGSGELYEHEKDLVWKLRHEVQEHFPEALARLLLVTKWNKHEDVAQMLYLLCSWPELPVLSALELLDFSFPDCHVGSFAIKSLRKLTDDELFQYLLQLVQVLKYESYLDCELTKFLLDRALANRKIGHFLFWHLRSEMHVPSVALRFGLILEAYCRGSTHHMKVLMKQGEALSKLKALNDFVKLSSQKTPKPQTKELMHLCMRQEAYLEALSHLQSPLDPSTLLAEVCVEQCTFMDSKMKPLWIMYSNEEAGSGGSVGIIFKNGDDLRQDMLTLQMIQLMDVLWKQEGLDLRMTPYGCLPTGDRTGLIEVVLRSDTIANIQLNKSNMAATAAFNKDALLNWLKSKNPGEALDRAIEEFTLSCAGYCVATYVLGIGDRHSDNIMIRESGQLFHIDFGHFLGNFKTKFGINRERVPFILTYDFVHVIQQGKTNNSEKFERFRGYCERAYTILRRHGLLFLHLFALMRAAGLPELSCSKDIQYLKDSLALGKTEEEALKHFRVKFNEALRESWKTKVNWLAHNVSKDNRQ
Chain of PI3K-δ (PI3K(p1108/p857) (h)) (P27986 whole entry partner, the tested form may be a part): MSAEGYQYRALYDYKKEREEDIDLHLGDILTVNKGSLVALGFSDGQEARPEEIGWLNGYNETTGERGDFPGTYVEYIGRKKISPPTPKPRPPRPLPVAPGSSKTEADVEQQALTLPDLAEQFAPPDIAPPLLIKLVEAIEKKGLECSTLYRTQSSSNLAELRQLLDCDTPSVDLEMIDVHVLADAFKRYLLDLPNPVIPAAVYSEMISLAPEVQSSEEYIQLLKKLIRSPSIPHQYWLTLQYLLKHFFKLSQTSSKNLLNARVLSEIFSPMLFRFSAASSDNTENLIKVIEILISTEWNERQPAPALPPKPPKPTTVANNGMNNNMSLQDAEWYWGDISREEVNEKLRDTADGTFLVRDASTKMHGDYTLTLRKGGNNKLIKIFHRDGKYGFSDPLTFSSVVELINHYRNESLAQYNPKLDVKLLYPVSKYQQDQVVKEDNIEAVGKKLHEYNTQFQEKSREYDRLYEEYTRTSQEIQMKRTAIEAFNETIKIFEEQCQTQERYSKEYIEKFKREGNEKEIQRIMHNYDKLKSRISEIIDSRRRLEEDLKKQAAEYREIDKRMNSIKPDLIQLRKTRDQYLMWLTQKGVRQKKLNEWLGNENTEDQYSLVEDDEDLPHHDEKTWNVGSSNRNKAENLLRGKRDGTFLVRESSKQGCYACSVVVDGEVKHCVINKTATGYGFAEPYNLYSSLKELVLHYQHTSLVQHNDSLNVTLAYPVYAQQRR
Procedure, shortened: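 HTRF read-out (665/620 nm ratio ×10000) used Eu-labelled anti-GST, GST-tagged GRP1 PH domain and streptavidin-allophycocyanin after EDTA/PIP3 stop.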

DNA-PK(h) = DNA-PK(h) (Homo sapiens, UniProt P78527); test: Evaluation of inhibitory activity against DNA-PK (HTRF kinase assay, GST-cMyc-p53 substrate); format: biochemical; settings: for inhibition at 0.01 µM: compound concentration 0.01 μM, read-out: EXP_VALUE(% Inhibition) DNA-PK(h) 0.01 μM; for inhibition at 0.1 µM: compound concentration 0.1 μM, read-out: EXP_VALUE(% Inhibition) DNA-PK(h) 0.1 μM
Procedure, shortened: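 Human DNA-PK with 50 μM GST-cMyc-p53 substrate; reaction started with Mg/ATP, run 30 min at room temperature, stopped with EDTA. Phospho-Ser15 p53 detected by HTRF (Eu anti-phospho-Ser15, d2 anti-GST), signal = 10000×(Em 665/Em 620).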

Row | Structure (SMILES) | inhibition at 0.01 µM [1] [%] | inhibition at 0.1 µM [1] [%] | inhibition at 0.01 µM (DNA-PK(h)) [%] | inhibition at 0.1 µM (DNA-PK(h)) [%]
1 | C[C@H](Nc1ncnc2[nH]ccc(=O)c12)c1c(Cl)c2cccc(-c3cccc(C=O)c3)c2c(=O)n1-c1ccccc1 [Example 79, (S)-3-(4-chloro-1-oxo-3-(1-((5-oxo-5,8-dihydropyrido[2,3-d]pyrimidin-4-yl)amino)ethyl)-2-phenyl-1,2-dihydroisoquinolin-8-yl)benzaldehyde] | 114 | 111 | 82 | 98
2 | C[C@H](Nc1ncnc2[nH]ccc(=O)c12)c1c(Cl)c2cccc(-c3ccc(C(N)=O)cc3)c2c(=O)n1-c1ccccc1 [Example 80, (S)-4-(4-chloro-1-oxo-3-(1-((5-oxo-5,8-dihydropyrido[2,3-d]pyrimidin-4-yl)amino)ethyl)-2-phenyl-1,2-dihydroisoquinolin-8-yl)benzamide] | 110 | 101 | 90 | 106
3 | C[C@H](Nc1ncnc2[nH]ccc(=O)c12)c1cc2cccc(-c3ccc(C(N)=O)cc3)c2c(=O)n1-c1ccccc1 [Example 81, (S)-4-(1-oxo-3-(1-((5-oxo-5,8-dihydropyrido[2,3-d]pyrimidin-4-yl)amino)ethyl)-2-phenyl-1,2-dihydroisoquinolin-8-yl)benzamide] | 97 | 105 | 22 | 76
4 | C[C@H](Nc1ncnc2[nH]ccc(=O)c12)c1c(Cl)c2cccc(-c3ccc(N4CCCC4)cc3)c2c(=O)n1-c1ccccc1 [Example 87, (S)-4-((1-(4-chloro-1-oxo-2-phenyl-8-(4-(pyrrolidin-1-yl)phenyl)-1,2-dihydroisoquinolin-3-yl)ethyl)amino)pyrido[2,3-d]pyrimidin-5(8H)-one] | 38 | 83 | 31 | 79
5 | C[C@H](Nc1ncnc2[nH]ccc(=O)c12)c1c(Cl)c2cccc(-c3ccc(N4CCCCC4)cc3)c2c(=O)n1-c1ccccc1 [Example 88, (S)-4-((1-(4-chloro-1-oxo-2-phenyl-8-(4-(piperidin-1-yl)phenyl)-1,2-dihydroisoquinolin-3-yl)ethyl)amino)pyrido[2,3-d]pyrimidin-5(8H)-one] | 42 | 88 | 33 | 78
6 | C[C@H](Nc1ncnc2[nH]ccc(=O)c12)c1c(Cl)c2cccc(-c3cccc4[nH]ccc34)c2c(=O)n1-c1ccccc1 [Example 89, (S)-4-((1-(4-chloro-8-(1H-indol-4-yl)-1-oxo-2-phenyl-1,2-dihydroisoquinolin-3-yl)ethyl)amino)pyrido[2,3-d]pyrimidin-5(8H)-one] | 58 | 92 | 17 | 52
7 | C[C@H](Nc1ncnc2[nH]ccc(=O)c12)c1c(Cl)c2cccc(-c3cccc(CC#N)c3)c2c(=O)n1-c1ccccc1 [Example 91, (S)-2-(3-(4-chloro-1-oxo-3-(1-((5-oxo-5,8-dihydropyrido[2,3-d]pyrimidin-4-yl)amino)ethyl)-2-phenyl-1,2-dihydroisoquinolin-8-yl)phenyl)acetonitrile] | 89 | 101 | 77 | 98
8 | C[C@H](Nc1ncnc2[nH]ccc(=O)c12)c1c(Cl)c2cccc(-c3ccc(-c4nnc(N)s4)cc3)c2c(=O)n1-c1ccccc1 [Example 92, (S)-4-((1-(8-(4-(5-amino-1,3,4-thiadiazol-2-yl)phenyl)-4-chloro-1-oxo-2-phenyl-1,2-dihydroisoquinolin-3-yl)ethyl)amino)pyrido[2,3-d]pyrimidin-5(8H)-one] | 91 | 97 | 63 | 92
9 | C[C@H](Nc1ncnc2[nH]ccc(=O)c12)c1c(Cl)c2cccc(-c3ccc(-c4cccs4)cc3)c2c(=O)n1-c1ccccc1 [Example 93, (S)-4-((1-(4-chloro-1-oxo-2-phenyl-8-(4-(thiophen-2-yl)phenyl)-1,2-dihydroisoquinolin-3-yl)ethyl)amino)pyrido[2,3-d]pyrimidin-5(8H)-one] | 46 | 79 | 13 | 45
10 | COc1cc(-c2cccc3c(Cl)c([C@H](C)Nc4ncnc5[nH]ccc(=O)c45)n(-c4ccccc4)c(=O)c23)ccc1Cl [Example 99, (S)-4-((1-(4-chloro-8-(4-chloro-3-methoxyphenyl)-1-oxo-2-phenyl-1,2-dihydroisoquinolin-3-yl)ethyl)amino)pyrido[2,3-d]pyrimidin-5(8H)-one] | 83 | 108 | 54 | 95

The remaining lines, values ahead:

Row | inhibition at 0.01 µM [1] [%] | inhibition at 0.1 µM [1] [%] | inhibition at 0.01 µM (DNA-PK(h)) [%] | inhibition at 0.1 µM (DNA-PK(h)) [%] | Structure (SMILES)
11 | 73 | 94 | 74 | 94 | Cc1c(-c2cccc3c(Cl)c([C@H](C)Nc4ncnc5[nH]ccc(=O)c45)n(-c4ccccc4)c(=O)c23)cnn1C [Example 82, (S)-4-((1-(4-chloro-8-(1,5-dimethyl-1H-pyrazol-4-yl)-1-oxo-2-phenyl-1,2-dihydroisoquinolin-3-yl)ethyl)amino)pyrido[2,3-d]pyrimidin-5(8H)-one]
12 | 56 | 89 | 66 | 94 | C[C@H](Nc1ncnc2[nH]ccc(=O)c12)c1c(Cl)c2cccc(-c3cnn(CCN(C)C)c3)c2c(=O)n1-c1ccccc1 [Example 83, (S)-4-((1-(4-chloro-8-(1-(2-(dimethylamino)ethyl)-1H-pyrazol-4-yl)-1-oxo-2-phenyl-1,2-dihydroisoquinolin-3-yl)ethyl)amino)pyrido[2,3-d]pyrimidin-5(8H)-one]
13 | 49 | 91 | 16 | 65 | C[C@H](Nc1ncnc2[nH]ccc(=O)c12)c1c(Cl)c2cccc(-c3ccc(Cl)cc3)c2c(=O)n1-c1ccccc1 [Example 84, (S)-4-((1-(4-chloro-8-(4-chlorophenyl)-1-oxo-2-phenyl-1,2-dihydroisoquinolin-3-yl)ethyl)amino)pyrido[2,3-d]pyrimidin-5(8H)-one]
14 | 73 | 95 | 56 | 91 | C[C@H](Nc1ncnc2[nH]ccc(=O)c12)c1c(Cl)c2cccc(-c3ccc(C=O)cc3)c2c(=O)n1-c1ccccc1 [Example 85, (S)-4-(4-chloro-1-oxo-3-(1-((5-oxo-5,8-dihydropyrido[2,3-d]pyrimidin-4-yl)amino)ethyl)-2-phenyl-1,2-dihydroisoquinolin-8-yl)benzaldehyde]
15 | 67 | 94 | 72 | 95 | C[C@H](Nc1ncnc2[nH]ccc(=O)c12)c1c(Cl)c2cccc(-c3ccc(N(C)C)nc3)c2c(=O)n1-c1ccccc1 [Example 86, (S)-4-((1-(4-chloro-8-(6-(dimethylamino)pyridin-3-yl)-1-oxo-2-phenyl-1,2-dihydroisoquinolin-3-yl)ethyl)amino)pyrido[2,3-d]pyrimidin-5(8H)-one]
16 | 84 | 95 | 78 | 100 | C[C@H](Nc1ncnc2[nH]ccc(=O)c12)c1c(Cl)c2cccc(-c3ccc(N)cc3)c2c(=O)n1-c1ccccc1 [Example 94, (S)-4-((1-(8-(4-aminophenyl)-4-chloro-1-oxo-2-phenyl-1,2-dihydroisoquinolin-3-yl)ethyl)amino)pyrido[2,3-d]pyrimidin-5(8H)-one]
17 | 3 | 14 | 9 | 16 | C[C@H](Nc1ncnc2[nH]ccc(=O)c12)c1c(Cl)c2cccc(-c3ccc(S)cc3)c2c(=O)n1-c1ccccc1 [Example 95, (S)-4-((1-(4-chloro-8-(4-mercaptophenyl)-1-oxo-2-phenyl-1,2-dihydroisoquinolin-3-yl)ethyl)amino)pyrido[2,3-d]pyrimidin-5(8H)-one]
18 | 86 | 97 | 78 | 100 | C[C@H](Nc1ncnc2[nH]ccc(=O)c12)c1c(Cl)c2cccc(-c3cnn(C4CC4)c3)c2c(=O)n1-c1ccccc1 [Example 96, (S)-4-((1-(4-chloro-8-(1-cyclopropyl-1H-pyrazol-4-yl)-1-oxo-2-phenyl-1,2-dihydroisoquinolin-3-yl)ethyl)amino)pyrido[2,3-d]pyrimidin-5(8H)-one]
19 | 84 | 99 | 35 | 87 | C[C@H](Nc1ncnc2[nH]ccc(=O)c12)c1c(Cl)c2cccc(-c3cccc(Cl)c3)c2c(=O)n1-c1ccccc1 [Example 97, (S)-4-((1-(4-chloro-8-(3-chlorophenyl)-1-oxo-2-phenyl-1,2-dihydroisoquinolin-3-yl)ethyl)amino)pyrido[2,3-d]pyrimidin-5(8H)-one]
20 | 66 | 91 | 84 | 98 | Cc1ccc(-c2cccc3c(Cl)c([C@H](C)Nc4ncnc5[nH]ccc(=O)c45)n(-c4ccccc4)c(=O)c23)o1 [Example 98, (S)-4-((1-(4-chloro-8-(5-methylfuran-2-yl)-1-oxo-2-phenyl-1,2-dihydroisoquinolin-3-yl)ethyl)amino)pyrido[2,3-d]pyrimidin-5(8H)-one]
